In patent publication US20110311643A1, “SUPPLEMENTED MATRICES FOR THE REPAIR OF BONE FRACTURES” (Kuros Biosurgery AG, priority 2005, published 2011):
Marks after values point to notes of the source that are not given here.

Tests used:
[1] = Stability of PTH / TGPTH in buffer (spiked samples, direct ELISA); format: physicochemical; settings: 0.5 μg/mL; 37° C.; distilled water, phosphate buffer saline, tris-buffer saline
Procedure: For the first release assay a fibrin matrix of 50 μl with 0.1 mg PTH or TGPTH per ml fibrin matrix was incubated at 37° C. in 10 ml buffer. Therefore, the concentration of PTH or TGPTH in the buffer in case of a total release would be 0.5 μg PTH or TGPTH/mL fibrin matrix. In order to compare the stability of PTH or TGPTH during the assay, samples of PTH or TGPTH were diluted directly in the buffer to a concentration of 0.5 μg PTH or TGPTH/mL fibrin matrix. Different buffers were tested: distilled water, phosphate buffer saline, tris-buffer saline.
Aliquots were taken at days 0, 1, 2, 4 and 6 and analysed by direct ELISA. […] Therefore, no conclusion could be made on the release data. The PTH stability was certainly affected by its low concentration and the buffers that were not optimal.
The release experiment was repeated by using a stabilizing buffer containing 50 mM mannitol in a 10 mM sodium acetate buffer. In addition, the buffer was exchanged every 2 days in order to prevent any degradation of peptide. […] The concentration of PTH or TGPTH in the buffer in case of a total release would be 100 μg/mL fibrin matrix (200 times more than before). […] Samples were collected every 2 to 4 days (with a change of buffer) during 2 weeks and analysed by direct ELISA. […]

[2] = tested on: 1 cm segmental tibial defect; assay: Sheep tibial defect model, supplemented fibrin matrix with TCP granules; format: in vivo
Procedure: The fibrin matrix was formed starting from the TISSEEL® Kit (Baxter AG, CH-8604 Volketswil/ZH) giving 4 mL fibrin matrix. TISSEEL® is produced from human derived pooled plasma and the content of active ingredients may vary from lot to lot within predefined ranges.
Matrix: A supplemented fibrin matrix containing granular material and PTH fusion peptide (TGplPTH1-34) was prepared using 3 separate syringes, a two-way syringe containing fibrin precursor solution and PTH fusion peptide (syringes 1 and 2) and two one-way syringes, one containing water and the other containing granules (syringes 3 and 4).
First the hydroxyapatite/calcium phosphate granules in syringe 4 were wetted by injection of the water of syringe 3. The fibrin precursor solution of syringe 1 (fibrinogen and TGplPTH1-34 suspended in a solution with aprotinin, a serine proteinase inhibitor which helps reduce fibrolysis to retain the integrity of the fibrin matrix) was mixed with the fibrin precursor solution of syringe 2 (thrombin in a calcium chloride solution). TGplPTH1-34 was formulated into the fibrinogen component to give a final concentration in the matrix varying from of 0.1 mg/mL to 10 mg/mL of the fibrin matrix and during the gelation process TGplPTH1-34 became crosslinked to the matrix. Fibrin precursor solutions also contained other components of fibrin matrix, such as plasma fibronectin, Factor XIIIa, plasminogen, and human albumin. When the precursor solutions are in equal volumes, a clotting process occurs to form fibrin. The clotting process takes place over several minutes which allows for the simultaneous injection of the mixed solutions into syringe 4, which contain the wetted granules. The matrix can then be introduced at the site of need where it solidifies. Enough matrix was placed in the defect to completely fill it.
Animals: A total of 42 Swiss Alpine, female sheep ranging between 44-83 kg (mean: 62.8 kg) and 2.25-4.75 years of age were chosen as experimental animals. Seven groups were formed with autografts as positive and fibrin matrix plus TCP granules as negative controls. The other groups consisted of the same fibrin matrix and TCP granules, but differed only in dosage of the TGplPTH1-34. Groups were followed for 12 weeks, when animals were sacrificed at a university-owned slaughter house. All animal experiments were conducted according to the Swiss laws of animal protection and welfare and were authorized by the local Ethical Committee and Veterinary Authorities.
Surgery: A medial approach to the tibia shaft was performed directly above the bone and extending from the distal aspect of the stifle to the hock joint, the medial fascia of the tibia was incised and the medial aspect of the tibia exposed without disturbing the periosteum. A 11 hole, 3.5 mm broad dynamic compression plate (Synthes) was contoured to the shaft with the distal end of the plate ending above the tibiotarsal joint. The plate was fixed to the bone using eleven 3.5 mm screws in a neutral position and distributing five screw holes distally and six proximally to the planned defect. The screws and plate were removed. Thereafter, the defect was marked on the bone with a scalpel blade using a gage ensuring a standardized 1 cm defect between the 5th and 6th screw hole. With an oscillating saw, the defect was cut under constant irrigation and preservation of soft tissues. The 1 cm segment including the circumferential periosteum was carefully removed and local bleeding out of the bone marrow or local soft tissue was stopped applying pressure with a gauze. The plate was repositioned and all screws reinserted before the matrix was filled into the bone gap as described above. Care was taken to distribute the matrix equally underneath the plate, on the lateral and as well as the transcortex.
For the positive autograft control group, autogenic bone was harvested through a local incision directly above the iliac crest. […]

[3] = tested on: acute, open tibial shaft fractures; assay: Phase II clinical study of I-040202 in tibial shaft fractures; format: in vivo, patients; settings: Intent-to-Treat
Description: This was a Phase II, prospective, randomized, controlled, open-label (dose-blinded), parallel-group, multi-center clinical study of the efficacy and safety of TGplPTH1-34 in a matrix made of fibrin (I-040202) in patients with acute, open tibial shaft fractures. The supplemented matrix was applied directly to the fracture site in the form of a paste. A total of 200 patients were randomized and treated in 31 centers across Europe.
The study consisted of four study groups: one control group using standard of care (SoC) which included intramedullary nailing and soft tissue management, and three treatment groups using 4 mL of I-040202 containing TGplPTH1-34 at concentrations of 0.133, 0.4 and 1.0 mg/mL fibrin matrix respectively (different concentrations of TGplPTH1-34), as an adjunct to SoC. Patients followed up clinically and radiologically on a monthly basis until 6 months post-surgery, and thereafter at 9 and 12 months post-surgery.
The primary endpoint was the proportion of patients who had fracture healing at 6 months as assessed by the investigator using radiographic and clinical parameters. Three doses of I-040202 in combination with SoC were compared against SoC alone.

[4] = 1 mg TGplPTH1-34/mL fibrin matrix

Compound	time stable in buffer [1]	amount of endosteal bone formation (histomorphometry) [2, 4]	rate of granule resorption (histomorphometry) [2, 4]	animals showing bridging ([2]; 1 mg TGplPTH1-34/mL fibrin matrix, 8 weeks)	animals healed showing stable, clinical unions ([2]; 1 mg TGplPTH1-34/mL fibrin matrix, after 12 weeks)	animals showing bending of the plate ([2]; 1 mg TGplPTH1-34/mL fibrin matrix, within the first four weeks)	periosteal healing compared to negative control material ([2]; 0.4 and 1 mg TGplPTH1-34/mL fibrin matrix)	healing compared to autograft ([2]; 0.4 and 1 mg TGplPTH1-34/mL fibrin matrix, 12 weeks)	animals with unstable fracture site ([2]; 12 weeks, plate removed, movement/torsion of the limb, TGplPTH1-34 at 1 mg/mL fibrin matrix, FIG. 4)	periosteal healing response (radiographs) ([2]; doses between 0.4 and 2 mg TGplPTH1-34/mL fibrin matrix, every time point)	rates of endosteal bone formation and granule resorption ([2]; higher doses of TGplPTH1-34)	stability of the defect at the endpoint ([2]; higher doses than about 1 mg TGplPTH1-34/mL fibrin matrix, 12 weeks)	% healed at 6 months (Clinician's assessment) ([3]; 0.133 mg TGplPTH1-34/ml fibrin matrix + SoC)	% healed at 6 months (Clinician's assessment) ([3]; 0.4 mg TGplPTH1-34/ml fibrin matrix + SoC, p = 0.084 vs SoC alone)	% healed at 6 months (Clinician's assessment) ([3]; 1.0 mg TGplPTH1-34/ml fibrin matrix + SoC)
CC[C@H](C)[C@H](NC(=O)[C@H](CCC(=O)O)NC(=O)[C@H](CO)NC(=O)[C@@H](NC(=O)[C@@H](N)CO)C(C)C)C(=O)N[C@@H](CCC(N)=O)C(=O)N[C@@H](CC(C)C)C(=O)N[C@@H](CCSC)C(=O)N[C@@H](Cc1cnc[nH]1)C(=O)N[C@@H](CC(N)=O)C(=O)N[C@@H](CC(C)C)C(=O)NCC(=O)N[C@@H](CCCCN)C(=O)N[C@@H](Cc1cnc[nH]1)C(=O)N[C@@H](CC(C)C)C(=O)N[C@@H](CC(N)=O)C(=O)N[C@@H](CO)C(=O)N[C@@H](CCSC)C(=O)N[C@@H](CCC(=O)O)C(=O)N[C@@H](CCCN=C(N)N)C(=O)N[C@H](C(=O)N[C@@H](CCC(=O)O)C(=O)N[C@@H](Cc1c[nH]c2ccccc12)C(=O)N[C@@H](CC(C)C)C(=O)N[C@@H](CCCN=C(N)N)C(=O)N[C@@H](CCCCN)C(=O)N[C@@H](CCCCN)C(=O)N[C@@H](CC(C)C)C(=O)N[C@@H](CCC(N)=O)C(=O)N[C@@H](CC(=O)O)C(=O)N[C@H](C(=O)N[C@@H](Cc1cnc[nH]1)C(=O)N[C@@H](CC(N)=O)C(=O)N[C@@H](Cc1ccccc1)C(=O)O)C(C)C)C(C)C [PTH1-34]	≤ 2 days	–	–	–	–	–	–	–	–	–	–	–	–	–	–
NQEQVSPLYKNRSVSEIQLMHNLGKHLNSMERVEWLRKKLQDVHNF (Modified Parathyroid hormone (PHT), comprisig amino acids 1-34 of native PTH as well as a transglutaminase substrate domain and a plasmin-degradable sequence) [TGplPTH1-34]	–	higher than with the other concentrations of TGplPTH1-34	highest resorption rate	one	5 animals	one	statistically stronger periosteal healing	equivalent to autograft	one	much stronger periosteal healing response	lower rates of both endosteal bone formation and granule resorption	much lower stability	75.6% (34 of 45)	80.4%* (37 of 46)	69.2% (27 of 39)
